Measurements as given in EP2070529B1, “Medical use of 3-(2,2,2-trimethylhydrazinium) propionate orotate” (Grindeks, a joint stock company, priority 2007, dated 2009).
Several values for one entry are separate records, joined by “and”; a condition that tells them apart may be missing. Equal values may be shown once. Marks after values point to notes of the source that are not given here.

Tests used:
rats = experiment: Acute arrhythmia induced by calcium chloride, lethality; assay type: in vivo, Wistar rats; settings: deaths/rats per group (8 rats), p.o. 14 days (Meldonium dihydrate 120 mg/kg, Meldonium orotate 204 mg/kg), last dose 24 h before, CaCl2 185 mg/kg, ECG until 10 minutes after
Protocol: Experiment was conducted on adult male Wistar rats. During the experiment, the animals were kept in Standard crates in groups of 8. The feed was a standardized diet R3 (LABFOR, Lactamin AB, Sweden). The room temperature was kept at 21-23°C, relative humidity at 65±10%, 12 hour light/darkness cycle. The experimental procedures were carried out in accordance with the guidelines of the European Community and local laws and policies and were approved by Latvian Animal Protection Ethical Committee, the Food and Veterinary Service.
An experimental acute arrhythmia was caused by introducing in rats solution of Calcium chloride.
Rats weighing 240-250 g randomized were divided into 3 groups, where in all groups there were 8 rats. During all 14 days rats got experimental preparations: Meldonium dihydrate or Meldonium orotate. The first group of 8 rats received drinking water (control group), the second group of 8 rats received Meldonium dihydrate (120 mg/kg p.o.) and the third group of 8 rats received Meldonium orotate (204 mg/kg p.o.). The last dose of experimental preparations animals got 24 h before the experiment. […] When narcosis started to influence to rat, there was cannulated left femoral vena for introducing of 10 % CaCl2 and after that there was connected ECG's recoding device (ADlnstrument PowerLab systems) and read ECG from the II lead. […]

isolated rat heart = experiment: Isolated rat heart infarction model; assay type: in vivo, Wistar rats; settings: by mouth for 14 days (Meldonium dihydrate 120 mg/kg, orotic acid 100mg/kg, Meldonium orotate 200 mg/kg), 60 minutes occlusion, 150 minute reperfusion
Protocol: Experiments were conducted on adult male Wistar rats with initial weight of 280-310g. During the experiment, the animals were kept in Standard crates in groups of 8. The feed was a standardized diet R70 (LABFOR, Lactamin AB, Sweden). The room temperature was kept at 21-23°C, relative humidity at 65±10%, 12 hour light/darkness cycle.
Rats weighing approximately 300 g were randomly divided in 4 groups. The first group received saline by mouth (control group), the second group 120 mg/kg Meldonium dihydrate, the third orotic acid 100mg/kg and the fourth group 200 mg/kg Meldonium orotate by mouth for 14 days.
Rats were anesthetized with sodium pentobarbital (60 mg/kg) and heparin (1 IU/g) was administrated concomitantly. Hearts were excised and retrogradely perfused via aorta at a constant pressure of 50 mm Hg, with oxygenated Krebs-Henseleit buffer ( content in mmol/L: NaCl 118, Ca Cl2 2.52, MgCl2 1.64, NaHCO3 24.88, KH2PO4 1.18, glucose 10.0, EDTA 0.05) pH 7.3-7.5 at 37°C.
A 5-0 polypropylene suture (Surgipro II, Syneture) was passed under the left anterior descending coronary artery and threaded through a small plastic tube to permit reversible occlusion of the coronart artery. Coronary flow was measured using an ultrasound flow detector (HSE) and PowerLab 8/30 system from ADlnstruments.
Hearts were adapted for 20 minutes and occlusion was performed for 60 minutes by constricting threads through a plastic tube.
At the end of the 150 minute reperfusion, the left anterior descending coronary artery was relegated and the risk zone was delineated with 0.1 % methylene blue solution in Krebs-Henseleit buffer infused via the aorta root. Hearts were sectioned transversely from the apex to the base of 2 mm thickness and incubated in 1 % triphenyl-tetrazolium chloride in phosphate buffer (pH 7.4, 37°C) for 10 minutes to stain viable tissue red and necrotic tissue white. […] Computerized planemetric analysis of photographs was performed using Image-Pro Plus 4.5.1 software to determine the area at risk (AR) and area of necrosis (AN) expressed as percentage of the left ventricle (LV). […]

Compound	Fatal outcome (rats; dihydrate)	Infarct size, % of control (isolated rat heart; IS = AN/AR x 100, dihydrate)	Fatal outcome (rats)	Infarct size, % of control (isolated rat heart; IS = AN/AR x 100)
C[N+](C)(C)NCCC(=O)[O-] [Meldonium dihydrate, 3-(2,2,2-Trimethylhydrazinium) propionate dihydrate]	2/8	76.9±5.9 % of control	–	–
C[N+](C)(C)NCCC(=O)[O-] [Meldonium orotate, 3-(2,2,2-trimethylhydrazinium) propionate orotate]	–	–	no lethal cases and 0/8	49.1±6.1***^,#,& % of control
O=C(O)c1cc(=O)[nH]c(=O)[nH]1 [Orotic acid]	–	–	–	75.0±7.7 % of control
